Assays:
[1] = biological target: T1, myeloperoxidase (MPO) (Homo sapiens, UniProt P05164); assay: MPO chlorination assay (APF assay); type: biochemical; conditions: MPO chlorination, 100 mM KPi pH 7.4, ten minute preincubation; read-out: APF Assay IC50 value
T1 sequence (P05164 49-745): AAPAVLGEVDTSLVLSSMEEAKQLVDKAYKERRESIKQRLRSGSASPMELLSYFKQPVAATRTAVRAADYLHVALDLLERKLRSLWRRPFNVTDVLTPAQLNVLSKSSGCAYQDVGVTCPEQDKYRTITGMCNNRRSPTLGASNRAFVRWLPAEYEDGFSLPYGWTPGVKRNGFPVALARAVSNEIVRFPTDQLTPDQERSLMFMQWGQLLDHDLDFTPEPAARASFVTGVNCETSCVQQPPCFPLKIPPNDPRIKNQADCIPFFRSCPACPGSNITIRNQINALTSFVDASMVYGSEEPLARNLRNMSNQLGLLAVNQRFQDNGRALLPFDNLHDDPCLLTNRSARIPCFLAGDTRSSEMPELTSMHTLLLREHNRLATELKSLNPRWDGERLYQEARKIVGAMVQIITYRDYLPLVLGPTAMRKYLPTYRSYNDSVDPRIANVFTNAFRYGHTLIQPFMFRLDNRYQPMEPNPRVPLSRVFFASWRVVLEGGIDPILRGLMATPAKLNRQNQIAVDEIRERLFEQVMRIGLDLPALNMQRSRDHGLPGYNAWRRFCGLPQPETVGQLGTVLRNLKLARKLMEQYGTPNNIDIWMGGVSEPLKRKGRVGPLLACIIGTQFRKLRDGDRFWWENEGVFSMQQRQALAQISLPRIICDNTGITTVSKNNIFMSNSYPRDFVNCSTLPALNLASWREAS
Procedure: (§1) [formula] where A=minimal Y value (activity level of inhibited sample), B=maximal Y value (activity level of uninhibited sample), C=Log IC50, D=Hill Slope, x=concentration of inhibitor. MPO Chlorination Assay (APF Assay)
MPO chlorination activity was measured in 100 mM KPi (pH 7.4) by utilizing the non-fluorescent reagent Aminophenyl fluorescein (APF, Invitrogen Cat. #A36003). APF is cleaved by (—OCl) to yield the fluorescent compound fluorescein. […] Enzyme, inhibitor, and chloride were preincubated for ten minutes at room temperature.
After the ten minute preincubation, 25 μL of an APF mixture containing […], 120 mM NaCl and 10 μM H2O2 was added to the plate using the internal dispensing system of a Hammatsu FDSS 6000. […] IC50 values for inhibitors were calculated by taking the slope of the linear portion of the kinetic measurement (20 seconds to ˜80-120 secs).
(§2) IC50 values were calculated by determining the slope of the linear portion of the kinetic trace (180-540 secs), and using that calculated slope to determine % inhibition occurring at each concentration of inhibitor using the following equation:
[formula] where A=minimal Y value (activity level of inhibited sample), B=maximal Y value (activity level of uninhibited sample), C=Log IC50, D=Hill Slope, x=concentration of inhibitor. EPX Bromination Assay

[2] = biological target: T1, myeloperoxidase (MPO); assay: MPO peroxidation assay (Amplex Red assay); type: biochemical
Procedure: MPO Peroxidation Assay (Amplex Red Assay)
MPO peroxidation activity was measured in 100 mM KPi (pH 7.4) by utilizing the non-fluorescent reagent Amplex Red (Invitrogen Cat. #A12222) which can be oxidized to the highly fluorescent resorufin. Amplex Red is oxidized by the peroxidase action of MPO to resorufin. […] Enzyme and compound were preincubated for ten minutes at room temperature.
After the ten minute preincubation, 25 μL of an Amplex Red mixture containing 200 μM Amplex Red and 10 mM H2O2 was added to the plate.
as §2, §1

[3] = MPO peroxidation, 100 mM KPi pH 7.4, ten minute preincubation, read-out: Amplex Red Assay IC50 value
[4] = MPO peroxidation (Amplex Red), ranges given, read-out: MPO peroxidation assay IC50 values (binned)

| Compound | IC50 [2, 4] [nM] | other results |
| --- | --- | --- |
| Nc1cc(OCc2cccnc2Cl)c2nn[nH]c2n1 [Example 90, 7-((2-Chloropyridin-3-yl)methoxy)-3H-[1,2,3]triazolo[4,5-b]pyridin-5-amine] |  | IC50 [1]: 50 nM; IC50 [2, 3]: 110 nM |
| Cc1oc(-c2ccc(S(C)(=O)=O)cc2)nc1CSc1cc(N)nc2[nH]nnc12 [Example 46, 7-((5-Methyl-2-(4-(methylsulfonyl)phenyl)oxazol-4-yl)methylthio)-3H-[1,2,3]triazolo[4,5-b]pyridin-5-amine] |  | IC50 [1]: 470 nM; IC50 [2, 3]: 90 nM |
| Nc1cc(OCC2COc3ccccc3O2)c2nn[nH]c2n1 (stereo not shown) [Example 32, 7-((2,3-Dihydrobenzo[b][1,4]dioxin-2-yl)methoxy)-3H-[1,2,3]triazolo[4,5-b]pyridin-5-amine] |  | IC50 [1]: 320 nM; IC50 [2, 3]: 610 nM |
| Nc1cc(OCC2CCN(C3=NC=CCN3)CC2)c2nn[nH]c2n1 [Example 85, 7-((1-(1,6-Dihydropyrimidin-2-yl)piperidin-4-yl)methoxy)-3H-[1,2,3]triazolo[4,5-b]pyridin-5-amine] |  | IC50 [1]: 640 nM; IC50 [2, 3]: 1080 nM |
| Nc1nc(OCc2ccc(Cl)nc2)c2nn[nH]c2n1 [Example 120, 7-((6-chloropyridin-3-yl)methoxy)-3H-[1,2,3]triazolo[4,5-d]pyrimidin-5-amine] | 150 to 1000 |  |
| Nc1nc(OCc2cn(-c3ccccc3)nn2)c2nn[nH]c2n1 [Example 121, 7-((1-phenyl-1H-1,2,3-triazol-4-yl)methoxy)-3H-[1,2,3]triazolo[4,5-d] pyrimidin-5-amine] | 60 to 150 |  |
| Nc1cc(OCc2ccc(C(F)(F)F)o2)c2nn[nH]c2n1 [Example 82, 7-((5-(Trifluoromethyl)furan-2-yl)methoxy)-3H-[1,2,3]triazolo[4,5-b]pyridin-5-amine] | ≤ 60 |  |
| COCc1nn(-c2ccccc2)nc1COc1cc(N)nc2[nH]nnc12 [Example 56, 7-((5-(Methoxymethyl)-2-phenyl-2H-1,2,3-triazol-4-yl)methoxy)-3H-[1,2,3]triazolo[4,5-b]pyridin-5-amine] | 60 to 150 |  |
| Cc1oc(-c2cc(F)cc(F)c2)nc1COc1cc(N)nc2[nH]nnc12 [Example 27, 7-((2-(3,5-Difluorophenyl)-5-methyloxazol-4-yl)methoxy)-3H-[1,2,3]triazolo[4,5-b]pyridin-5-amine] | 150 to 1000 |  |
| Nc1cc(OCc2cc(-c3ccc(N4CCNCC4)nc3)ncc2F)c2nn[nH]c2n1 [Example 110, 7-((5-fluoro-6′-(piperazin-1-yl)-[2,3′-bipyridin]-4-yl)methoxy)-3H-[1,2,3] triazolo[4,5-b]pyridin-5-amine] | ≤ 60 |  |
| Cn1nc(COc2cc(N)nc3[nH]nnc23)cc1Br [Example 93, 7-((5-Bromo-1-methyl-1H-pyrazol-3-yl)methoxy)-3H-[1,2,3]triazolo[4,5-b]pyridin-5-amine] | ≤ 60 |  |
| Nc1cc(OCc2ncc(-c3ccc(C4CC4)nc3)cc2F)c2nn[nH]c2n1 [Example 101, 7-((6′-cyclopropyl-5-fluoro-[3,3′-bipyridin]-6-yl)methoxy)-3H-[1,2,3]triazolo[4,5-b] pyridin-5-amine] | ≤ 60 |  |
| Nc1cc(OCc2nn(-c3ccccc3)nc2CO)c2nn[nH]c2n1 [Example 64, (5-(((5-Amino-3H-[1,2,3]triazolo[4,5-b]pyridin-7-yl)oxy)methyl)-2-phenyl-2H-1,2,3-triazol-4-yl)methanol] |  | IC50 ([2]; MPO peroxidation assay IC50 values (binned), MPO peroxidation (Amplex Red), ranges given): 60 to 150 nM |
| Cn1ncc2ccc(COc3cc(N)nc4[nH]nnc34)cc21 [Example 9, 7-((1-Methyl-1H-indazol-6-yl)methoxy)-3H-[1,2,3]triazolo[4,5-b]pyridin-5-amine] | ≤ 60 |  |
| Nc1cc(OCc2nnc3cccc(Cl)n23)c2nn[nH]c2n1 [Example 29, 7-((5-Chloro-[1,2,4]triazolo[4,3-a]pyridin-3-yl)methoxy)-3H-[1,2,3]triazolo [4,5-b]pyridin-5-amine] | 60 to 150 |  |
| Cc1nc(-c2ccc(Cl)cc2)ncc1COc1cc(N)nc2[nH]nnc12 [Example 31, 7-((2-(4-Chlorophenyl)-4-methylpyrimidin-5-yl)methoxy)-3H-[1,2,3]triazolo[4,5-b]pyridin-5-amine] | 150 to 1000 |  |
| Nc1cc(OCc2cc(Cl)ncc2F)c2nn[nH]c2n1 [Example 88, 7-((2-Chloro-5-fluoropyridin-4-yl)methoxy)-3H-[1,2,3]triazolo[4,5-b]pyridin-5-amine] | 60 to 150 |  |
| Nc1nc(OCc2cccc3cccnc23)c2nn[nH]c2n1 [Example 114, 7-(quinolin-8-ylmethoxy)-3H-[1,2,3] triazolo[4,5-d]pyrimidin-5-amine] | 60 to 150 |  |
| Nc1cc(OCc2ncc(-c3ccc(CO)nc3)cc2F)c2nn[nH]c2n1 [Example 108, (6′-(((5-amino-3H-[1,2,3]triazolo[4,5-b]pyridin-7-yl)oxy)methyl)-5′-fluoro-[3,3′-bipyridin]-6-yl)methanol] | 60 to 150 |  |

Continued, in another order:

| IC50 [2, 4] [nM] | Compound | other results |
| --- | --- | --- |
| ≤ 60 | Nc1cc(OCc2nc(-c3ccc(N4CCNCC4)nc3)ccc2F)c2nn[nH]c2n1 [Example 97, 7-((5-fluoro-6′-(piperazin-1-yl)-[2,3′-bipyridin]-6-yl)methoxy)-3H-[1,2,3] triazolo[4,5-b]pyridin-5-amine] |  |
| 60 to 150 | COc1ccc(-c2cncc(COc3nc(N)nc4[nH]nnc34)c2)cc1 [Example 118, 7-((5-(4-methoxyphenyl)pyridin-3-yl)methoxy)-3H-[1,2,3]triazolo[4,5-d] pyrimidin-5-amine] |  |
| ≤ 60 | Cn1nc(-c2ccccc2)cc1COc1cc(N)nc2[nH]nnc12 [Example 18, 7-((1-Methyl-3-phenyl-1H-pyrazol-5-yl)methoxy)-3H-[1,2,3]triazolo[4,5-b]pyridin-5-amine] |  |
| 60 to 150 | Cc1nn(C2CCNCC2)nc1COc1cc(N)nc2[nH]nnc12 [Example 68, 7-((5-Methyl-2-(piperidin-4-yl)-2H-1,2,3-triazol-4-yl)methoxy)-3H-[1,2,3]triazolo[4,5-b]pyridin-5-amine] |  |
| 150 to 1000 | Nc1cc(OCc2cccc3c2ncn3Cc2ccccc2)c2nn[nH]c2n1 [Example 37, 7-((1-Benzyl-1H-benzo[d]imidazol-4-yl)methoxy)-3H-[1,2,3]triazolo[4,5-b]pyridin-5-amine] |  |
| 150 to 1000 | Cc1nn(-c2ccc(Br)cc2)nc1COc1cc(N)nc2[nH]nnc12 [Example 58, 7-((2-(4-Bromophenyl)-5-methyl-2H-1,2,3-triazol-4-yl)methoxy)-3H-[1,2,3]triazolo[4,5-b]pyridin-5-amine] |  |
| 60 to 150 | Nc1cc(OCc2cc(-c3ccc(CO)nc3)ncc2F)c2nn[nH]c2n1 [Example 111, (4-(((5-amino-3H-[1,2,3]triazolo[4,5-b]pyridin-7-yl)oxy)methyl)-5-fluoro-[2,3′-bipyridin]-6′-yl)methanol] |  |
| 60 to 150 | Nc1nc(OCc2cc(Cl)nc(Cl)c2)c2nn[nH]c2n1 [Example 119, 7-((2,6-dichloropyridin-4-yl)methoxy)-3H-[1,2,3]triazolo[4,5-d]pyrimidin-5-amine] |  |
| ≤ 60 | Nc1cc(OCc2ccc3c(c2)OCO3)c2nn[nH]c2n1 [Example 1, 7-(Benzo[d][1,3]dioxol-5-ylmethoxy)-3H-[1,2,3]triazolo[4,5-b]pyridin-5-amine] |  |
| ≤ 60 | Cc1nn(C2CCC(C)C2)nc1COc1cc(N)nc2[nH]nnc12 (mixture of isomers) [Example 72, 7-((5-Methyl-2-(3-methylcyclopentyl)-2H-1,2,3-triazol-4-yl)methoxy)-3H-[1,2,3]triazolo[4,5-b]pyridin-5-amine] |  |
| ≤ 60 | Nc1cc(OCc2cccc3c2OCCO3)c2nn[nH]c2n1 [Example 2, 7-((2,3-Dihydrobenzo[b][1,4]dioxin-5-yl)methoxy)-3H-[1,2,3]triazolo[4,5-b]pyridin-5-amine] |  |

— patent US9920075B2, “Triazolopyridine and triazolopyrimidine inhibitors of myeloperoxidase” (BRISTOL-MYERS SQUIBB COMPANY, priority 2014, dated 2018)
